Patent publication US8883227B2, “Plant pathogen inhibitor combinations and methods of use” (priority 2009, dated 2014)

Experiments:
Type in all cases: in vivo
Bremia lactucae = test: Lettuce downy mildew test on cotyledons
Description: Synergy between MBI-106 and acibenzolar-S-methyl or mefenoxam which control a specific class of pathogens Oomycetes was tested with lettuce downy mildew following Su et al. (2004).
To prepare inoculum of downy mildew, lettuce seeds were placed on […] petri-dishes with about 20-30 seeds in each and watered with sterile water, then supplied with ½ strength of Hoagland's solution after germination. The petri dishes were placed at 20° C. growth chamber for 7-10 days. The spores of Bremia lactucae was inoculated on lettuce cotyledons and cultured for 7-10 days at 15° C. for sporulation to occur. Cotyledons with sporulation were cut off and placed in a falcon tube with sterile water. The cotyledons were vortexed for 15 seconds three times and filtered through a 100-uμm mesh to collect sporangia. The solution was adjusted to 0.5 to 1.0×10^5 spores/ml for inoculation.
Four test plants were seeded in each 2-in pots and then placed at 20° C. for 7-10 days to grow cotyledons. Plants were ready for test when the first true leaf was emerging.
The lettuce plants were treated with the materials and left to dry or overnight. Then the plants were inoculated with sporangial solution. The treatments were arranged in a randomized complete block design with four replicates. The inoculated plants were placed in darkness in growth chamber for 48 hours and then incubated under 12-h light period at 15° C. Eight to ten days after inoculation, the cotyledons were rated for disease severity (percentage area covered with sporangiophores).

Sphaerotheca fuliginea = test: Greenhouse cucumber powdery mildew test, foliar spray alone or in tank mix
Description: The studies were conducted in a green house. Experimental design of the studies for synergism followed the Burpee and Latin (2008). Powdery mildew, caused by Sphaerotheca fuliginea, was used for investigating the efficacy of the treatments.
Cucumber seeds cv. “SMR 58” (Irwin & Sons Ag Supply, Inc. Cheshire, Oreg.) were grown in plastic 4-inch pots with potting soil mix (Rod McLellan Company, Marysville, Ohio). The plants were treated at 2-true leaf stage. The compounds at various rates were sprayed with a 2-oz mist sprayer at 2 ml per plant at upper side and 1 ml at lower side of the leaves. The treated plants were left for 3-4 hours under florescent light to dry before inoculation.
A conidia suspension of Sphaerotheca fuliginea, the causal agent of powdery mildew disease on cucumber, was prepared by cutting diseases leaves of the cucumber plants that are served for conservation of inoculum. The suspension were adjusted to 2.0×10^5 conidia per ml and applied with a 2-oz mist sprayer at 2 ml per plant on the upper side of the leaves. The inoculated plants were placed in a greenhouse and the treatments were arranged in randomized complete blocks with 4 to 6 replicates at 25° C. to 30° C.
The disease severity (percentage area covered with colonies) of the first leaves were rated according to James (1971). Disease severity and percentage control were analyzed with analysis of variance (ANOVA) and means of the treatments were compared with Fisher's Protected Least Difference (LSD) at p=0.05 level. Synergetic effect was calculated and analyzed with Limpel's formula (Limpel et al., 1962; Richer, 1987).

Rhizoctonia solani = test: Soybean seed treatment (seed coating) in infested soil, damping off; details: inoculated
Description: The experiments described below were conducted with soybean but similar procedures are used with other crops such as cereals, corn, cotton, and potatoes.
The experiments were conducted in a greenhouse following the procedure developed by Hwang et al. (2006). The isolate of Rhizoctonia solani was grown on potato dextrose agar plates and cultured for 5 days for inoculating oat or wheat grain. One liter of grain was soaked overnight at room temperature (25° C.) and rinsed three times with tape water. The 8×12-in autoclave bags were filled with the grain up to ⅓ full were autoclaved at 121° C. for 15 min. The autoclaved grain then was then inoculated with 5 pieces of 1×1 cm plug of the 5-day culture of R. solani per bag and cultured for 5 days at room temperature (25° C.). The bags were left open in laminar flow hood to let the grain completely dry.
The blank seed sample of 10 g to be coated was placed in a flask. Coating agent SEPIRET® 1171-O (Becker Underwood Ltd., Ames, Iowa) was put into the flasks together with the compound of interest, and the flask was shaken vigorously so that the seed picked up the compound. The procedure was repeated with fresh seed sample of cvs. “White Lion” (Kitazawa Seed Co., Oakland, Calif.) or “Viking 2265” (Johnny's Selected Seeds, Winslow, Me.) in the same flask for the treatments. After the seeds were coated, they were left to air dry before planting.
To prepare the soil, five hundred milliliters of the dried grains with inoculum were blended for 15 seconds three times and the powder was mixed with sterile sand at 1:1 (v/v) to dilute the inoculum. The sand mix was further used to prepare soil mix at various proportions 1:350 to 1:800 (inoculum:soil) for soybean to generate various disease levels in repeated tests.
The coated seeds were planted in the pots with infested soil. There were three replicates of each treatment which were arranged in a complete randomized block design and placed at 25 to 30° C. in a greenhouse.
After 10 to 20 days, depending on disease pressure and temperature, emergence of each treatment was rated and compared. Biomass was measured by weighing the above-ground portion which was measured for each replicate of the plant material.

[1] = Example VI, acibenzolar-S-methyl 25 ug/ml alone
[2] = Example IV, azoxystrobin 0.25 ug/ml alone
[3] = Example IV, azoxystrobin 0.5 ug/ml alone
[4] = Example IV, azoxystrobin 1.0 ug/ml alone
[5] = Example IV, azoxystrobin 5.0 ug/ml alone
[6] = Example IV, azoxystrobin 10.0 ug/ml alone
[7] = Example XI (Test II), azoxystrobin 0.1 ug/ml alone
[8] = Example XI (Test II), azoxystrobin 0.25 ug/ml alone
[9] = Example XI (Test II), azoxystrobin 0.5 ug/ml alone
[10] = Example VIII, azoxystrobin 0.0298 g/kg alone
[11] = Example IX, fludioxonil 0.0596 g ai/kg alone
[12] = Example VII, mefenoxam 37.5 ug/ml alone
[13] = Example VII, mefenoxam 75 ug/ml alone
[14] = Example VII, mefenoxam 150 ug/ml alone
[15] = Example I, myclobutanil 0.05 ug/ml alone
[16] = Example I, myclobutanil 0.1 ug/ml alone
[17] = Example I, myclobutanil 0.25 ug/ml alone
[18] = Example II (repeated test), myclobutanil 0.05 ug/ml alone
[19] = Example II (repeated test), myclobutanil 0.1 ug/ml alone
[20] = Example II (repeated test), myclobutanil 0.25 ug/ml alone
[21] = Example X, propiconazole 1.0 ug/ml alone
[22] = Example III, quinoxyfen 0.01 ug/ml alone
[23] = Example III, quinoxyfen 0.05 ug/ml alone
[24] = Example V, triflumizole 0.25 ug/ml alone
[25] = Example V, triflumizole 0.5 ug/ml alone
[26] = Example V, triflumizole 1.0 ug/ml alone

CSC(=O)c1cccc2nnsc12 [acibenzolar-S-methyl]
Control (%) (Bremia lactucae; [1]): 23.4% | Severity (%) (Bremia lactucae; [1]): 68.9%

CO/C=C(/C(=O)OC)c1ccccc1Oc1cc(Oc2ccccc2C#N)ncn1 [azoxystrobin]
Control (%) (Sphaerotheca fuliginea; [2]): 51.8% | Severity (%) (Sphaerotheca fuliginea; [2]): 45.0% | Control (%) (Sphaerotheca fuliginea; [3]): 48.0% | Severity (%) (Sphaerotheca fuliginea; [3]): 48.8% | Control (%) (Sphaerotheca fuliginea; [4]): 68.1% | Severity (%) (Sphaerotheca fuliginea; [4]): 30.0% | Control (%) (Sphaerotheca fuliginea; [5]): 94.3% | Severity (%) (Sphaerotheca fuliginea; [5]): 5.3% | Control (%) (Sphaerotheca fuliginea; [6]): 87.6% | Severity (%) (Sphaerotheca fuliginea; [6]): 11.3% | Control (%) (Sphaerotheca fuliginea; [7]): 21.6% | Severity (%) (Sphaerotheca fuliginea; [7]): 72.5% | Control (%) (Sphaerotheca fuliginea; [8]): 13.5% | Severity (%) (Sphaerotheca fuliginea; [8]): 80.0% | Control (%) (Sphaerotheca fuliginea; [9]): 62.2% | Severity (%) (Sphaerotheca fuliginea; [9]): 35.0% | Control (%) (Rhizoctonia solani; [10]): 81.5% | Emergence (%) (Rhizoctonia solani; [10]): 86.4%

N#Cc1c[nH]cc1-c1cccc2c1OC(F)(F)O2 [fludioxonil]
Bio mass (Rhizoctonia solani; [11]): 8.7 g | Control (%) (Rhizoctonia solani; [11]): 28.4% | Emergence (%) (Rhizoctonia solani; [11]): 35.8%

COCC(=O)N(c1c(C)cccc1C)[C@H](C)C(=O)OC [mefenoxam]
Control (%) (Bremia lactucae; [12]): −2.6% | Severity (%) (Bremia lactucae; [12]): 89.3% | Control (%) (Bremia lactucae; [13]): 37.7% | Severity (%) (Bremia lactucae; [13]): 54.2% | Control (%) (Bremia lactucae; [14]): 48.5% | Severity (%) (Bremia lactucae; [14]): 44.8%

CCCCC(C#N)(Cn1cncn1)c1ccc(Cl)cc1 (centres unmarked) [myclobutanil]
Control (%) (Sphaerotheca fuliginea; [15]): 2.5% | Severity (%) (Sphaerotheca fuliginea; [15]): 95.8% | Control (%) (Sphaerotheca fuliginea; [16]): 3.2% | Severity (%) (Sphaerotheca fuliginea; [16]): 95.0% | Control (%) (Sphaerotheca fuliginea; [17]): 83.1% | Severity (%) (Sphaerotheca fuliginea; [17]): 16.7% | Control (%) (Sphaerotheca fuliginea; [18]): −2.8% | Severity (%) (Sphaerotheca fuliginea; [18]): 93.8% | Control (%) (Sphaerotheca fuliginea; [19]): 12.2% | Severity (%) (Sphaerotheca fuliginea; [19]): 80.0% | Control (%) (Sphaerotheca fuliginea; [20]): 41.3% | Severity (%) (Sphaerotheca fuliginea; [20]): 53.8%

CCCC1COC(Cn2cncn2)(c2ccc(Cl)cc2Cl)O1 (centres unmarked) [propiconazole]
Control (%) (Sphaerotheca fuliginea; [21]): 1.3% | Severity (%) (Sphaerotheca fuliginea; [21]): 97.5%

Fc1ccc(Oc2ccnc3cc(Cl)cc(Cl)c23)cc1 [quinoxyfen, 5,7-dichloro-4-quinolyl 4-fluorophenyl ether]
Control (%) (Sphaerotheca fuliginea; [22]): 1.33% | Severity (%) (Sphaerotheca fuliginea; [22]): 90.0% | Control (%) (Sphaerotheca fuliginea; [23]): 66.95% | Severity (%) (Sphaerotheca fuliginea; [23]): 30.0%

CCCOC/C(=N\c1ccc(Cl)cc1C(F)(F)F)n1ccnc1 [triflumizole]
Control (%) (Sphaerotheca fuliginea; [24]): 2.6% | Severity (%) (Sphaerotheca fuliginea; [24]): 95.0% | Control (%) (Sphaerotheca fuliginea; [25]): 11.5% | Severity (%) (Sphaerotheca fuliginea; [25]): 86.3% | Control (%) (Sphaerotheca fuliginea; [26]): 20.5% | Severity (%) (Sphaerotheca fuliginea; [26]): 77.5%
